According to US20260226061A1, “COMPOSITIONS USEFUL FOR MODULATING SPLICING” (Skyhawk Therapeutics, Inc., priority 2023, published 2026):

System: ATXN3 pre-mRNA
Test: ATXN3 Quantitative Splicing Assay (qPCR, E4E5 primers/probe, transcripts containing exon 4)
Assay type: cell-based
Conditions: Human neuroblastoma SK-N-MC cells, 24 h treatment, 30 μM to 0.6 nM; read-out: ATXN3 Potency - Splicing E4E5 IC50
Experimental: Human neuroblastoma SK-N-MC cells were plated in 384-well plates at 20,000 cells/well. Twenty-four hours after plating, cells were treated with compounds for 24 h at appropriate concentrations ranging from 30 μM to 0.6 nM (0.3% DMSO). Treated cells were lysed in 15 μL of lysis buffer, and cDNA was synthesized using the Fast Advanced Cells-to-Ct kit. Two μL of each cDNA was used in qPCR reactions to confirm the exon 4 skipped transcripts of ATXN3. A second set of primers/probe E4E5 was used to detect the transcripts containing exon 4. The third set of primers/probe E8E9 was used to detect total gene level of ATXN3. The qPCR reactions were prepared in 384-well plates in 10 μL volume, using TaqMan™ Fast Advanced Master Mix with primers and probes shown in the table below. Reactions were run in a Quant Studio 6 qPCR instrument with default settings.
The primers and probes are listed below in Table 3.

Row | Structure (SMILES) | IC50 [nM]
1 | C[C@H](F)[C@H](N)Cc1cc2c(NCc3ccc(F)cc3)nc(Cl)nn2c1Br [Compound 1, 6-((2R,3S)-2-amino-3-fluorobutyl)-7-bromo-2-chloro-N-(4-fluorobenzyl)pyrrolo[2,1-f][1,2,4]triazin-4-amine] | 501 to 5000
2 | C[C@H](F)[C@H](N)Cc1cc2c(NCc3ccc(F)cc3)nc(Cl)nn2c1Cl [Compound 2, 6-((2R,3S)-2-amino-3-fluorobutyl)-2,7-dichloro-N-(4-fluorobenzyl)pyrrolo[2,1-f][1,2,4]triazin-4-amine] | 501 to 5000
3 | C[C@H](F)[C@H](N)Cc1cc2c(NCc3ccccc3F)nc(Cl)nn2c1Br [Compound 4, 6-((2R,3S)-2-amino-3-fluorobutyl)-7-bromo-2-chloro-N-(2-fluorobenzyl)pyrrolo[2,1-f][1,2,4]triazin-4-amine] | 101 to 500
4 | C[C@H](F)[C@H](N)Cc1cc2c(NCc3ccccc3F)nc(Cl)nn2c1Cl [Compound 5, 6-((2R,3S)-2-amino-3-fluorobutyl)-2,7-dichloro-N-(2-fluorobenzyl)pyrrolo[2,1-f][1,2,4]triazin-4-amine] | 101 to 500
5 | C[C@H](F)[C@H](N)Cc1cc2c(NCc3ccccc3)nc(Cl)nn2c1Cl [Compound 6, 6-((2R,3S)-2-amino-3-fluorobutyl)-N-benzyl-2,7-dichloropyrrolo[2,1-f][1,2,4]triazin-4-amine] | 101 to 500
6 | Cc1c(C[C@@H](N)[C@H](C)F)cc2c(NCc3ccccc3)nc(Cl)nn12 [Compound 7, 6-((2R,3S)-2-amino-3-fluorobutyl)-N-benzyl-2-chloro-7-methylpyrrolo[2,1-f][1,2,4]triazin-4-amine] | 501 to 5000
7 | Cc1c(C[C@@H](N)[C@H](C)F)cc2c(NCc3ccccc3F)nc(Cl)nn12 [Compound 8, 6-((2R,3S)-2-amino-3-fluorobutyl)-2-chloro-N-(2-fluorobenzyl)-7-methylpyrrolo[2,1-f][1,2,4]triazin-4-amine] | 101 to 500
8 | Cc1c(C[C@@H](N)CC2CC2)cc2c(NCc3ccccc3F)nc(Cl)nn12 [Compound 14, (S)-6-(2-amino-3-cyclopropylpropyl)-2-chloro-N-(2-fluorobenzyl)-7-methylpyrrolo[2,1-f][1,2,4]triazin-4-amine] | 5000 to 10000

Continued, values first:

Row | IC50 [nM] | Structure (SMILES)
9 | 101 to 500 | C[C@H](F)[C@H](N)Cc1cc2c(NCc3ccccc3)nc(Cl)nn2c1Br [Compound 3, 6-((2R,3S)-2-amino-3-fluorobutyl)-N-benzyl-7-bromo-2-chloropyrrolo[2,1-f][1,2,4]triazin-4-amine]
10 | 501 to 5000 | N[C@H](Cc1cc2c(NCc3ccccc3)nc(Cl)nn2c1Br)CC1CC1 [Compound 9, (S)-6-(2-amino-3-cyclopropylpropyl)-N-benzyl-7-bromo-2-chloropyrrolo[2,1-f][1,2,4]triazin-4-amine]
11 | 501 to 5000 | N[C@H](Cc1cc2c(NCc3ccccc3F)nc(Cl)nn2c1Br)CC1CC1 [Compound 10, (S)-6-(2-amino-3-cyclopropylpropyl)-7-bromo-2-chloro-N-(2-fluorobenzyl)pyrrolo[2,1-f][1,2,4]triazin-4-amine]
12 | 501 to 5000 | N[C@H](Cc1cc2c(NCc3ccccc3)nc(Cl)nn2c1Cl)CC1CC1 [Compound 11, (S)-6-(2-amino-3-cyclopropylpropyl)-N-benzyl-2,7-dichloropyrrolo[2,1-f][1,2,4]triazin-4-amine]
13 | 501 to 5000 | N[C@H](Cc1cc2c(NCc3ccccc3F)nc(Cl)nn2c1Cl)CC1CC1 [Compound 12, (S)-6-(2-amino-3-cyclopropylpropyl)-2,7-dichloro-N-(2-fluorobenzyl)pyrrolo[2,1-f][1,2,4]triazin-4-amine]
14 | 5000 to 10000 | Cc1c(C[C@@H](N)CC2CC2)cc2c(NCc3ccccc3)nc(Cl)nn12 [Compound 13, (S)-6-(2-amino-3-cyclopropylpropyl)-N-benzyl-2-chloro-7-methylpyrrolo[2,1-f][1,2,4]triazin-4-amine]
